Consider 9 molecules from patent publication US20170081338A1, “SUBSTITUTED HETEROARYL COMPOUNDS AND METHODS OF USE” (Sunshine Lake Pharma Co., Ltd., priority 2015, published 2017).

Data set [1] in a line: Pharmacokinetics after intravenous and oral administration in rats. As to conditions: for Clearance (CL) after iv dosing / AUC(0-t) / half-life / Vd: dose 1 mg/kg, iv dosing; for F: oral bioavailability; for AUC(0-t) / half-life / Vd: rat, plasma; for Vd: read-out: Vss. The class given is in vivo. In short, it runs like this:
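Compounds dosed IV at 0.5, 1 or 2 mg/kg and orally at 0.5, 1, 5 or 10 mg/kg in rats, as solution, suspension or capsule formulations. Serial blood sampled out to 24 h and plasma stored frozen. Plasma levels quantified by LC/MS/MS in ESI MRM mode.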

The target in the next data set is T1, Aurora-A (h) (Homo sapiens, UniProt O14965).
T1 construct: purchased Millipore UK Ltd (contract assay service)
T1 sequence (O14965 1-403): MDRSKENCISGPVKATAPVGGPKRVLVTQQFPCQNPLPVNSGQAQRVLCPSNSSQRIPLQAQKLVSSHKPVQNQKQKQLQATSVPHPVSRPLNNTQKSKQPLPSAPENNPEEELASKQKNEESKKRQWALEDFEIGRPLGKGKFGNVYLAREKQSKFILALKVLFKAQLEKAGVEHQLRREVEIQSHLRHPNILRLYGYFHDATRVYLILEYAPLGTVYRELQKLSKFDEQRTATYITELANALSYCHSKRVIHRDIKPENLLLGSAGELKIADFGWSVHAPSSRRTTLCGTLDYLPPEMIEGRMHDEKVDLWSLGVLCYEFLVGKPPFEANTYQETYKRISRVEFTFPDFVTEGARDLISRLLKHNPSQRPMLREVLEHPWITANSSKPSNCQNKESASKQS
Briefly: Aurora-A (h) kinase assay. The class given is biochemical. On the procedure: (§1) The above assay procedure can be used to determine the IC50 for inhibition and/or the inhibition constant, Ki. The IC50 is defined as the concentration of compound required to reduce the enzyme activity by 50% under the condition of the assay. The IC50 value is estimated by preparing a 10 point curve using a 1/2 log dilution series (for example, a typical curve may be prepared using the following compound concentrations: 3 μM, 1 μM, 0.3 μM, 0.1 μM, 0.03 μM, 0.01 μM, 0.003 μM, 0.001 μM, 0.0003 μM and 0 μM).
Aurora-A (h) is incubated with 8 mM MOPS pH 7.0, 0.2 mM EDTA, 200 μM LRRASLG (Kemptide), 10 mM MgAcetate and [γ-^33P-ATP] (specific activity approx. 500 cpm/pmol, concentration as required). The reaction is initiated by the addition of the MgATP mix. After incubation for 40 minutes at room temperature, the reaction is stopped by the addition of 3% phosphoric acid solution. 10 μL of the reaction is then spotted onto a P30 filtermat and washed three times for 5 minutes in 75 mM phosphoric acid and once in methanol prior to drying and scintillation counting.
(§2) The kinase assays described herein were performed at Millipore UK Ltd, Dundee Technology Park, Dundee DD2 1SW, UK.

The target of another data set is T2, Aurora-B (h) (Homo sapiens, UniProt Q96GD4).
T2 construct: purchased Millipore UK Ltd (contract assay service)
T2 sequence (Q96GD4 whole entry): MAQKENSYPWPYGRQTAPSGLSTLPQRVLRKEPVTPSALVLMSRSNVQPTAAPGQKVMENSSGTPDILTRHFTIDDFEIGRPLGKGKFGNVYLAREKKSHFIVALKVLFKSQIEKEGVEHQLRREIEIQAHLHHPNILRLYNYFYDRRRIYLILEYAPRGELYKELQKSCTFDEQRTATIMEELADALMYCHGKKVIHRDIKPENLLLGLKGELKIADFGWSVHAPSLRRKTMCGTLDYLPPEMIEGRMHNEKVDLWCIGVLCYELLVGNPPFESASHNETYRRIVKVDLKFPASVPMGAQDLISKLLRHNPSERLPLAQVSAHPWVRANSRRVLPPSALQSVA
Kind of data set: Aurora-B (h) kinase assay. The class given is biochemical. On the procedure: Kinase assays can be performed by measurement of incorporation of γ-^33P ATP into immobilized myelin basic protein (MBP). High binding white 384 well plates (Greiner) are coated with MBP (Sigma #M-1891) by incubation of 60 μL/well of 20 μg/mL MBP in Tris-buffered saline (TBS; 50 mM Tris pH 8.0, 138 mM NaCl, 2.7 mM KCl) for 24 h at 4° C. Plates are washed 3× with 100 μL TBS. Kinase reactions are carried out in a total volume of 34 μL in kinase buffer (according to the need to make, for example, 5 mM Hepes pH 7.6, 15 mM NaCl, 0.01% bovine gamma globulin (Sigma #1-5506), 10 mM MgCl2, 1 mM DTT, 0.02% TritonX-100). Compound dilutions are performed in DMSO and added to assay wells to a final DMSO concentration of 1%. Each data point is measured in duplicate, and at least two duplicate assays are performed for each individual compound determination. Enzyme is added to final concentrations of 10 nM or 20 nM, for example. A mixture of unlabeled ATP and γ-^33P ATP is added to start the reaction (2×10^6 cpm of γ-^33P ATP per well (3000 Ci/mmole) and 10 μM unlabeled ATP, typically. The reactions are carried out for 1 h at room temperature with shaking. Plates are washed 7× with TBS, followed by the addition of 50 µL/well scintillation fluid (Wallac). Plates are read using a Wallac Trilux counter. This is only one format of such assays; various other formats are possible, as known to one skilled in the art.
as §1
Aurora-B (h) is incubated with 8 mM MOPS pH 7.0, 0.2 mM EDTA, 30 μM AKRRRLSSLRA, 10 mM MgAcetate and [γ-^33PATP] (specific activity approx. 500 cpm/pmol, concentration as required). The reaction is initiated by the addition of the MgATP mix. After incubation for 40 minutes at room temperature, the reaction is stopped by the addition of a 3% phosphoric acid solution. 10 μL of the reaction is then spotted onto a P30 filtermat and washed three times for 5 minutes in 75 mM phosphoric acid and once in methanol prior to drying and scintillation counting.
as §2

Data set [2] in a line: Compound stability in human liver microsomes. Type of data set: in vitro ADME. As to conditions: pH 7.4; for half-life at 5 μM: human liver microsomes 0.5 mg protein/mL, compound 5 μM, NADPH, 37° C., read-out: Human T1/2; for CLint scaled at 5 μM: human liver microsomes, in vivo CLint extrapolated. A digest of the protocol:
(§3)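 After a 3-min preincubation, reactions of 5 μM compound with NADPH (1.0 mM) were started by adding microsomal protein to 0.5 mg/mL and run at 37° C in pH 7.4 phosphate buffer. Aliquots were stopped with ice-cold acetonitrile at up to 60 min. Parent levels were then measured by LC/MS/MS.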

The nature of data set [3]: Compound stability in rat liver microsomes. Conditions: pH 7.4; for half-life at 5 μM: rat liver microsomes 0.5 mg protein/mL, compound 5 μM, NADPH, 37° C., read-out: Rat T1/2; for CLint scaled at 5 μM: rat liver microsomes, in vivo CLint extrapolated. The class given is in vitro ADME. In short, it runs like this:
as §3

For `Cn1cc(Nc2ncc(Cl)c(N[C@@H]3COC4C3OC[C@@H]4NS(=O)(=O)CC(C)(C)C)n2)cn1` (stereo partly drawn) [Ex. 30, N-((3S,6R)-6-((5-chloro-2-((1-methyl-1H-pyrazol-4-yl)amino)pyrimidin-4-yl)amino)hexahydrofuro[3,2-b]furan-3-yl)-2,2-dimethylpropane-1-sulfonamide], in data set [1], the “Clearance (CL) after iv dosing” value stood at 24.2 mL/min/kg; the F is listed as 67.4%; the AUC(0-t) – broadly, the area under the concentration-time curve up to a stated or last time point – was 696 ng·h/mL; the half-life is 37.8 min. Moreover, the Vd in data set [1] amounted to 0.82 L/kg. Moreover, the IC50 – broadly, the concentration needed to halve the response being measured – at Aurora-A (h) amounted to 17 nM. This molecule also showed an IC50 on Aurora-B (h) of 8 nM.

Consider `CCC(C)CS(=O)(=O)N[C@H]1COC2C1OC[C@H]2Nc1nc(Nc2cnn(C)c2)ncc1Cl` (stereo partly drawn) [Ex. 33, N-((3S,6R)-6-((5-chloro-2-((1-methyl-1H-pyrazol-4-yl)amino)pyrimidin-4-yl)amino)hexahydrofuro[3,2-b]furan-3-yl)-2-methylbutane-1-sulfonamide], for which, in data set [1], the “Clearance (CL) after iv dosing” value stood at 23.2 mL/min/kg, the F was 53.6%, the area under the curve AUC(0-t) was determined as 725 ng·h/mL and the half-life is 17.4 min. For the same molecule, the Vd in data set [1] amounted to 0.57 L/kg. At Aurora-A (h), this molecule came in with an IC50 of 18 nM. The concentration for half-maximal inhibition (IC50) at Aurora-B (h) was determined as 25 nM.

For the molecule `Cn1cc(Nc2ncc(Cl)c(N[C@@H]3COC4C3OC[C@@H]4NS(=O)(=O)CC3CCC3)n2)cn1` (stereo partly drawn) [Ex. 31, N-((3S,6R)-6-((5-chloro-2-((1-methyl-1H-pyrazol-4-yl)amino)pyrimidin-4-yl)amino)hexahydrofuro[3,2-b]furan-3-yl)-1-cyclobutylmethanesulfonamide], in data set [1], the “Clearance (CL) after iv dosing” value was 18.8 mL/min/kg, the F is 88.1%, the exposure AUC(0-t) is 947 ng·h/mL and the half-life was 37.2 min. Further, in data set [1], the Vd stood at 0.71 L/kg. The concentration for half-maximal inhibition (IC50) on Aurora-A (h) was 12 nM. At Aurora-B (h), this molecule yielded a half-inhibitory concentration (IC50) of 18 nM.

`Cn1cc(Nc2ncc(Cl)c(N[C@@H]3COC4C3OC[C@@H]4NS(=O)(=O)CC3CCCO3)n2)cn1` (stereo partly drawn) [Ex. 34, N-((3S,6R)-6-((5-chloro-2-((1-methyl-1H-pyrazol-4-yl)amino)pyrimidin-4-yl)amino)hexahydrofuro[3,2-b]furan-3-yl)-1-(tetrahydrofuran-2-yl)methanesulfonamide]: in data set [1], the F is 28.9%, the AUC(0-t) turned out to be 1540 ng·h/mL, the half-life was 37.8 min and the Vd stood at 1.23 L/kg. Moreover, the half-maximal inhibitory concentration (IC50) against Aurora-A (h) came to 24 nM. The 50% inhibitory concentration (IC50) at Aurora-B (h) was 21 nM.

Consider `CC(C)S(=O)(=O)N[C@H]1COC2C1OC[C@H]2Nc1nc(Nc2cnn(C)c2)ncc1Cl` (stereo partly drawn) [Ex. 15, N-((3S,6R)-6-((5-chloro-2-((1-methyl-1H-pyrazol-4-yl)amino)pyrimidin-4-yl)amino)hexahydrofuro[3,2-b]furan-3-yl)propane-2-sulfonamide], for which, in data set [2], the half-life at 5 μM was 143 min and the CLint scaled (in general, a measure of how fast metabolising enzymes remove a compound, apart from limits set by blood flow) at 5 μM is 12.1 mL/min/kg. In data set [3], the half-life at 5 μM amounted to 91.6 min and the CLint scaled at 5 μM is 27.1 mL/min/kg. For the same molecule, in data set [1], the “Clearance (CL) after iv dosing” value was found to be 23.2 mL/min/kg, the F is reported as 86.5%, the AUC(0-t) was 726 ng·h/mL and the half-life was 47.4 min. Moreover, the Vd in data set [1] is 1.11 L/kg. Further, at Aurora-A (h), it took 34 nM to reach half-maximal inhibition (IC50).

As to `CC(C)CS(=O)(=O)N[C@@H]1COC2C1OC[C@@H]2Nc1nc(Nc2cnn(C)c2)ncc1Cl` (stereo partly drawn) [Ex. 13, N-((3R,6S)-6-((5-chloro-2-((1-methyl-1H-pyrazol-4-yl)amino)pyrimidin-4-yl)amino)hexahydrofuro[3,2-b]furan-3-yl)-2-methylpropane-1-sulfonamide], in data set [2], the half-life at 5 μM was 32.9 min and the intrinsic metabolic clearance (CLint scaled) at 5 μM was 52.8 mL/min/kg. In addition, in data set [3], the half-life at 5 μM is 41.4 min and the CLint scaled at 5 μM was 60 mL/min/kg. Also, in data set [1], the “Clearance (CL) after iv dosing” value was determined as 57 mL/min/kg, the F amounted to 74.5%, the exposure AUC(0-t) was 291 ng·h/mL and the half-life is 58.2 min. Besides, the Vd in data set [1] turned out to be 2.56 L/kg. Besides, inhibition against Aurora-A (h) was half-maximal at 1030 nM (IC50).

Consider `Cn1cc(Nc2ncc(Cl)c(N[C@@H]3COC4C3OC[C@@H]4NS(=O)(=O)C3CC3)n2)cn1` (stereo partly drawn) [Ex. 4, N-((3S,6R)-6-((5-chloro-2-((1-methyl-1H-pyrazol-4-yl)amino)pyrimidin-4-yl)amino)hexahydrofuro[3,2-b]furan-3-yl)cyclopropanesulfonamide], for which, in data set [2], the half-life at 5 μM is 563 min and the CLint scaled at 5 μM was 3.09 mL/min/kg. Further, in data set [3], the half-life at 5 μM is 103 min and the intrinsic clearance (CLint scaled) at 5 μM was 24 mL/min/kg. Moreover, in data set [1], the “Clearance (CL) after iv dosing” value was determined as 23.7 mL/min/kg, the F came to 51.7%, the AUC(0-t) is 712 ng·h/mL and the half-life is 21 min. Further, the Vd in data set [1] worked out at 0.69 L/kg. On Aurora-A (h), inhibition was half-maximal at 53 nM (IC50).

As for `Cn1cc(Nc2ncc(Cl)c(N[C@@H]3COC4C3OC[C@@H]4NS(=O)(=O)C3CCOC3)n2)cn1` (stereo partly drawn) [Ex. 20, N-((3S,6R)-6-((5-chloro-2-((1-methyl-1H-pyrazol-4-yl)amino)pyrimidin-4-yl)amino)hexahydrofuro[3,2-b]furan-3-yl)tetrahydrofuran-3-sulfonamide], in data set [2], the half-life at 5 μM amounted to 75.5 min and the CLint scaled at 5 μM was 23 mL/min/kg. Moreover, in data set [3], the half-life at 5 μM turned out to be 116 min and the CLint scaled at 5 μM was 21.5 mL/min/kg. Besides, in data set [1], the “Clearance (CL) after iv dosing” value is 60.3 mL/min/kg, the F is recorded as 42.5%, the AUC(0-t) came to 284 ng·h/mL and the half-life is 27.6 min. The Vd in data set [1] worked out at 1.41 L/kg. This molecule had a concentration for half-maximal inhibition (IC50) at Aurora-A (h) of 41 nM.

For the molecule `Cn1cc(Nc2ncc(Cl)c(N[C@@H]3COC4C3OC[C@@H]4NS(=O)(=O)C3CCCC3)n2)cn1` (stereo partly drawn) [Ex. 14, N-((3S,6R)-6-((5-chloro-2-((1-methyl-1H-pyrazol-4-yl)amino)pyrimidin-4-yl)amino)hexahydrofuro[3,2-b]furan-3-yl)cyclopentanesulfonamide], in data set [2], the half-life at 5 μM turned out to be 24.7 min and the intrinsic clearance (CLint scaled) at 5 μM is 70.4 mL/min/kg. Besides, in data set [3], the half-life at 5 μM worked out at 47.7 min and the CLint scaled at 5 μM was 52.1 mL/min/kg. For the same molecule, in data set [1], the “Clearance (CL) after iv dosing” value came to 33.3 mL/min/kg, the F amounted to 91.9%, the AUC(0-t) was 497 ng·h/mL and the half-life is 54 min. Besides, the Vd in data set [1] stood at 1.08 L/kg. For the same molecule, the 50% inhibitory concentration (IC50) on Aurora-A (h) amounted to 51 nM.
